{
  "source": "paper PMC6366974",
  "about": "“The curcumin analog EF24 is a novel senolytic agent” (Aging (Albany NY), 2019)",
  "key": {"[1]": {"test_system": "WI-38 IR-induced senescent cells (IR-SCs)", "experiment": "Cell viability assay (flow cytometry, PI)", "assay_type": "cell-based, human", "conditions": "WI-38, 72 h; for EC50: Homo sapiens", "protocol": "(§1) Human WI-38 fibroblasts (WI-38, Cat. No. CCL-75), human IMR-90 fibroblasts (IMR-90, Cat. No. CCL-186), human umbilical vein endothelial cells (HUVEC, Cat. No. CRL-1730), human renal epithelial cells (HREC, Cat. No. PCS-400-012) and human pre-adipocytes (Cat. No. PCS-210-010) were newly purchased from the American Type Culture Collection (ATCC, Manassas, VA, USA). WI-38 and IMR-90 cells were cultured in complete Dulbecco’s modified Eagle medium (DMEM, Cat. No. 12430054, Thermo Fisher Scientific, Waltham, MA, USA) supplemented with 10% heat-inactivated fetal bovine serum (FBS, Cat. No. S11150H, Atlanta Biologicals, Flowery Branch, GA, USA), 100 U/mL penicillin and 100 µg/mL streptomycin (Pen Strep, Cat. No. 15140122, Thermo Fisher Scientific, Waltham, MA, USA) in a humidified incubator at 37°C and 5% CO2. HUVEC were cultured in EGM-2 BulletKit (Cat. No. CC-3162, Lonza, Basel, Switzerland) containing basal medium supplemented with growth factors, cytokines and other supplements according to the manufacturer’s protocol. HREC were cultured in renal epithelial cell basal medium (Cat. No. PCS-400-030, ATCC, Manassas, VA, USA) supplemented with renal epithelial cell growth kit (Cat. No. PCS400040, ATCC, Manassas, VA, USA). Human pre-adipocytes were cultured in fibroblast basal medium (Cat. No. PCS-201-030, ATCC, Manassas, VA, USA) supplemented with fibroblast growth kit-low serum (Cat. No. PCS201041, ATCC, Manassas, VA, USA). EF24 (Cat. No. E8409) and HO-3867 (Cat. No. S7501) were purchased from Sigma-Aldrich (St. Louis, MO, USA) and Selleckchem (Houston, TX, USA), respectively. DIMC (Cat. No. 10009986) and 2-HBA (Cat. No. 11879) were both purchased from Cayman Chemical (Ann Arbor, MI, USA).\n(§2) Three different methods were used for the induction of SCs, including replicative exhaustion, ionizing radiation and ectopic Ras expression as previously described. Briefly, low-passage WI-38 cells (< 25 passages), IMR-90 cells (< 25 passages), HUVEC (< 10 passages), HREC (< 10 passages) and pre-adipocytes (< 4 passages) were used as NCs or for the induction of senescence. To induce replicative senescence (Rep-SCs), WI-38 and IMR-90 fibroblasts, HUVEC, HREC and pre-adipocytes were subcultured until they stopped to divide and became permanently growth arrested senescence after 38 passages (WI-38), 38 passages (IMR-90), 22 passages (HUVEC), 30 passages (HREC) and 10 passages (pre-adipocytes), respectively. To induce SCs by ionizing radiation (IR-SCs) and ectopic expression of Ras (Ras-SCs), WI-38 NCs were treated as previously described.\n(§3) Number of viable cells were quantified using flow cytometry as previously described with slight modifications. Specifically, NCs and SCs were incubated with vehicle (0.1% DMSO) or a test compound at indicated concentrations for 72 h. Following dissociation with 0.25% Trypsin-EDTA (Cat. No. 25200056, Thermo Fisher Scientific, Waltham, MA, USA) at 37°C for 5 min, the cells were harvested in 100 µl pre-cooled phosphate buffered saline (PBS, Cat. No. 20012027, Thermo Fisher Scientific, Waltham, MA, USA) containing 2% FBS and 100 ng/mL propidium iodide (PI, P4170, Sigma-Aldrich, St. Louis, MO, USA) and analyzed using flow cytometry (LSR II, BD Biosciences, San Jose, CA, USA). Percentage of viable cells were determined by counting the number of PI negative cells (viable cells) and then calculated as a ratio of control cells treated with vehicle. In addition, dose-response curves were generated for each compound, and the concentration for 50% of maximal effect (EC50 values) was calculated using GraphPad Prism 6."}, "[2]": {"test_system": "WI-38 Ras-induced senescent cells (Ras-SCs)", "experiment": "Cell viability assay (flow cytometry, PI)", "assay_type": "cell-based, human", "conditions": "72 h", "protocol": "as §1, §2, §3"}, "[3]": {"test_system": "WI-38 non-senescent cells (NCs)", "experiment": "Cell viability assay (flow cytometry, PI)", "assay_type": "cell-based, human", "conditions": "for EC50: Homo sapiens, WI-38, 72 h", "protocol": "as §1, §2, §3"}, "[4]": {"test_system": "IMR-90 fibroblasts IR-SCs", "experiment": "Cell viability assay (flow cytometry, PI)", "assay_type": "cell-based", "conditions": "Homo sapiens, IMR-90, 72 h"}, "HUVEC IR-SCs": {"test_system": "HUVEC IR-SCs", "experiment": "Cell viability assay (flow cytometry, PI)", "assay_type": "cell-based", "conditions": "Homo sapiens, 72 h"}, "pre-adipocytes IR-SCs": {"test_system": "pre-adipocytes IR-SCs", "experiment": "Cell viability assay (flow cytometry, PI)", "assay_type": "cell-based", "conditions": "Homo sapiens; Pre-adipocyte, 72 h"}, "WI-38 IR-SCs": {"test_system": "WI-38 IR-SCs", "experiment": "Combination treatment cell viability and coefficient of drug interaction (CDI)", "assay_type": "cell-based, human", "conditions": "72 h", "protocol": "as §3\nThe data were analyzed by analysis of variance (ANOVA) with GraphPad Prism 6 (GraphPad Software, La Jolla, CA, USA). […] To detect the synergistic senolytic activities of EF24 and ABT263, CDI was calculated as previously described."}},
  "data": [
    {"compound": "O=C1/C(=C/c2ccccc2F)CNC/C1=C\\c1ccccc1F", "note": "[EF24]", "values": [
      {"measurement": "EC50", "setting": "[1]; Table 2", "result": 1.74, "unit": "µM"},
      {"measurement": "EC50", "setting": "[1]; WI-38 IR-SCs, 72 h, Table 1 screen of curcumin analogs", "result": 1.62, "unit": "µM"},
      {"measurement": "selective toxicity against IR-SCs versus NCs (viability)", "setting": "[1]", "result": "lesser toxicities to NCs"},
      {"measurement": "sensitivity of WI-38 Ras-SCs compared with Rep-SCs and IR-SCs", "setting": "[2]", "result": "highest sensitivity"},
      {"measurement": "EC50", "setting": "[3]; Table 2", "result": 4.32, "unit": "µM"},
      {"measurement": "EC50", "setting": "[3]; WI-38 NCs, 72 h, Table 1 screen of curcumin analogs", "result": 4.69, "unit": "µM"},
      {"measurement": "effect on the cell viability of WI-38 NCs", "setting": "[3]; below 4 μM, 72 h", "result": "minimal effect"},
      {"measurement": "EC50", "setting": "[4]", "result": 1.72, "unit": "µM"},
      {"measurement": "EC50", "setting": "HUVEC IR-SCs", "result": 2.09, "unit": "µM"},
      {"measurement": "EC50", "setting": "pre-adipocytes IR-SCs", "result": 5.04, "unit": "µM"},
      {"measurement": "cell viability of IR-SCs, agent alone", "setting": "WI-38 IR-SCs", "result": "dose-dependently reduce"}
    ]}
  ]
}
